Laboratory results published in paper PMC6825211 (Nature Communications, 2019).
Values joined by “and” are separate entries in the source; they are usually repeats but may differ in a detail not shown here. Identical values can stand only once.

Columns and labels:
[1] = target: EPH-A2 (Homo sapiens, UniProt P29317); assay: Nanosyn kinase profiling, mobility shift assay; settings: read-out: % inhibition by neratinib
[2] = target: AURORA-A (Homo sapiens, UniProt O14965); assay: Nanosyn kinase profiling, mobility shift assay; settings: read-out: % inhibition by neratinib
AURORA-A, sequence (O14965 whole entry): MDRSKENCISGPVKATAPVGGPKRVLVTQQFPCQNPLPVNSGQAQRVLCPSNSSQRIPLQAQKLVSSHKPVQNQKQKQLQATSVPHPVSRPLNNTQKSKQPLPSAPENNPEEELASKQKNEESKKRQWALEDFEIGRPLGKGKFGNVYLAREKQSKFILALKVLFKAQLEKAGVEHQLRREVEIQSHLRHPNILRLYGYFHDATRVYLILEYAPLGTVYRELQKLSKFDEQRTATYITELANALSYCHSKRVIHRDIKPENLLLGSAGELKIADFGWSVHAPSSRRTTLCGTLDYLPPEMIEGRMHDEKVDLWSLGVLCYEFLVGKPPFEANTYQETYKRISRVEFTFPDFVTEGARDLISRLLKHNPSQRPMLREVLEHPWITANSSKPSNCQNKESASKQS

[3] = tested on: 250 kinases; assay: Nanosyn panel of 250 biochemical kinase assays; settings: 3 µM, of 250 kinases
Protocol: inhibition was determined for each assay.

[4] = tested on: MST1–LATS2 signaling; assay: LATS-BS in vitro luciferase assay (MST1/LATS2 overexpression); settings: for Firefly/Renilla x1000 (MEAN): L2/Mst1 overexpression + 10 μM compound
Description: Therefore a LATS-BS construct has been generated with fusion of YAP fragment and 14-3-3 with N-terminal and C-terminal firefly luciferase fragments (N-luc and C-luc), respectively that assesses LATS kinase activity by measuring the interaction between pS127-YAP and 14-3-3[35] in a MST1–LATS2-phosphorylation-dependent manner (Fig. 4a).
As internal transfection control, pRL-Renilla luciferase control reporter vector (Promega) was co-transfected into each sample. […] Luciferase signal was calculated based on the ratio of luciferase activity of LATS-BS to control reporter vector.

[5] = target: T1, MST1 (Rattus norvegicus, UniProt A0A8I6A0F8); assay: CETSA assay; assay type: cell-based; settings: 5 μM, 2 h, INS-1E, 55 °C
T1 construct: endogenous in cells; host or cells: INS-1E (rat beta-cell line)
T1 sequence (A0A8I6A0F8 1-487): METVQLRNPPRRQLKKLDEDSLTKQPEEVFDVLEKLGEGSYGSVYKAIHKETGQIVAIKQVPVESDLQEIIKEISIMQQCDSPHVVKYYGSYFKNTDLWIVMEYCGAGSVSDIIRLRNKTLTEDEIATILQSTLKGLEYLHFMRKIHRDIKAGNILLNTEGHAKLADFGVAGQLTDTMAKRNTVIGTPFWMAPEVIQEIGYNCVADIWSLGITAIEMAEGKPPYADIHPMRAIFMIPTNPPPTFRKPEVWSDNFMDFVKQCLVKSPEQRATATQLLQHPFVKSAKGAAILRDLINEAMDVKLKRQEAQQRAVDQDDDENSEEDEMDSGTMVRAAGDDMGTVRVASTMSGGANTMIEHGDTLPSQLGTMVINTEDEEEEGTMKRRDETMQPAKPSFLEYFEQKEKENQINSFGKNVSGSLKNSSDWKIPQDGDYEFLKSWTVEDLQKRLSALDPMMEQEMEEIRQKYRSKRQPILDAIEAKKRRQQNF
Protocol: Thereafter, cells were pelleted at 200 g for 4 min and resuspended in PBS supplemented with phosphatase and protease inhibitor cocktail at the cell density of 3 Mill./100 µl. Each cell suspension was distributed into five 0.2-ml PCR tubes with 100 µl of cell suspension per tube. PCR tubes were heated at their designated temperature (43–55 °C) on a thermal cycler for 3 min, incubated at room temperature for 3 min, and snap-frozen in liquid nitrogen. Cell lysates were prepared by freezing–thawing the samples in liquid nitrogen twice, and soluble MST1 was detected by western blot analysis.

[6] = target: JAK2 (Homo sapiens, UniProt O60674); assay: Nanosyn kinase profiling, mobility shift assay; settings: read-out: % inhibition by neratinib
[7] = target: P38-ALPHA (Homo sapiens, UniProt Q16539); assay: Nanosyn kinase profiling, mobility shift assay; settings: read-out: % inhibition by neratinib
P38-ALPHA, sequence (Q16539 whole entry): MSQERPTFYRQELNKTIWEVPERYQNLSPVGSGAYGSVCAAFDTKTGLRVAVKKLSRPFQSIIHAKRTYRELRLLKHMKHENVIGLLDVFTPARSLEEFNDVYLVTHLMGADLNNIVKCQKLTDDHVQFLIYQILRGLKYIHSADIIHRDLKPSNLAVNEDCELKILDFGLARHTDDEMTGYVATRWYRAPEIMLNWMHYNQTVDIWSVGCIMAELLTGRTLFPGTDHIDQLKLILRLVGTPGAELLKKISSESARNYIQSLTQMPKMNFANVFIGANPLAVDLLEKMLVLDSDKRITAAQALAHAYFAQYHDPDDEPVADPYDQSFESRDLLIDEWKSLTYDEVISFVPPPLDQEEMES

[8] = target: JNK2 (Homo sapiens, UniProt P45984); assay: Nanosyn kinase profiling, mobility shift assay; settings: read-out: % inhibition by neratinib
[9] = target: AMP-A1B1G1 (Homo sapiens, UniProt Q13131); assay: Nanosyn kinase profiling, mobility shift assay; settings: read-out: % inhibition by neratinib
AMP-A1B1G1, sequence (Q13131 whole entry): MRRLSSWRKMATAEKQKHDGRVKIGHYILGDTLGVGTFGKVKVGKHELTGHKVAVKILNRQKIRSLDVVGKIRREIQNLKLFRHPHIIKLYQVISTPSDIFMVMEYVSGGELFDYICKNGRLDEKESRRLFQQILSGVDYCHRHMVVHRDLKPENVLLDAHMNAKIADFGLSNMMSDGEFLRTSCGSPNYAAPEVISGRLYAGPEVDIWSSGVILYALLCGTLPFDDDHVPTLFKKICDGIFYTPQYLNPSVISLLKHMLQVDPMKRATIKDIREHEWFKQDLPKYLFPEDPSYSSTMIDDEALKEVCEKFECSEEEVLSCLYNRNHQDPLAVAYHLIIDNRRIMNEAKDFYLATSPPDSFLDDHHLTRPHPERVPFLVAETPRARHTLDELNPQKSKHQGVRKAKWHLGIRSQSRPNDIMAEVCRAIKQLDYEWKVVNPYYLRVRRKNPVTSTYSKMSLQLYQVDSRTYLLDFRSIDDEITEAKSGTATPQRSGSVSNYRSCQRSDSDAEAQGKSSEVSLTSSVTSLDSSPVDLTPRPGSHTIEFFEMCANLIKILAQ
AMP-A1B1G1, sequence (Q9Y478 whole entry partner): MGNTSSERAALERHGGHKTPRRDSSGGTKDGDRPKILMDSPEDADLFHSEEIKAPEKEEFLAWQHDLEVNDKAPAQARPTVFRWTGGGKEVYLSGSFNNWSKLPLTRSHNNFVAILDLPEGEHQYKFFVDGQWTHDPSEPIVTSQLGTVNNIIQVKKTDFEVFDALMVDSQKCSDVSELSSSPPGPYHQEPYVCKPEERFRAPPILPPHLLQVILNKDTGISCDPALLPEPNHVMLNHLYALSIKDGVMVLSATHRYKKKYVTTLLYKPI
AMP-A1B1G1, sequence (P54619 whole entry partner): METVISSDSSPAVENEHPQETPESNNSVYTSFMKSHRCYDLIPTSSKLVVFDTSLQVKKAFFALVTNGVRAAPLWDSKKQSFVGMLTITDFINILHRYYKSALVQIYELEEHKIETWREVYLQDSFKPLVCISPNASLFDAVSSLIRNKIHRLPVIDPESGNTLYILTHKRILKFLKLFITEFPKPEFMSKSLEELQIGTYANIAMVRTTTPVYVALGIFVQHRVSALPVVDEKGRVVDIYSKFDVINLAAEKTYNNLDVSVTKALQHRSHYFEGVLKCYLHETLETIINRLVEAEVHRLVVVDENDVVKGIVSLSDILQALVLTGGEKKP

[10] = target: MAPK1 (Homo sapiens, UniProt P28482); assay: Nanosyn kinase profiling, mobility shift assay; settings: read-out: % inhibition by neratinib
[11] = target: CDK1 (Homo sapiens, UniProt P06493); assay: Nanosyn kinase profiling, mobility shift assay; settings: read-out: % inhibition by neratinib
CDK1, sequence (P06493 whole entry): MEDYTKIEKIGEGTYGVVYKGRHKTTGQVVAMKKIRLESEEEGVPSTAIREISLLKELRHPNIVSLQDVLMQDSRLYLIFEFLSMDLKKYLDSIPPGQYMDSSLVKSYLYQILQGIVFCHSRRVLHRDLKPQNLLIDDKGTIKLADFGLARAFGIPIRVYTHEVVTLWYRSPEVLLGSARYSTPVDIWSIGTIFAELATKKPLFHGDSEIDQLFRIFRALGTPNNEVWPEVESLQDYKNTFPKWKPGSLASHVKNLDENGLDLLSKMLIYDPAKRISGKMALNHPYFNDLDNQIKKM
CDK1, sequence (P14635 whole entry partner): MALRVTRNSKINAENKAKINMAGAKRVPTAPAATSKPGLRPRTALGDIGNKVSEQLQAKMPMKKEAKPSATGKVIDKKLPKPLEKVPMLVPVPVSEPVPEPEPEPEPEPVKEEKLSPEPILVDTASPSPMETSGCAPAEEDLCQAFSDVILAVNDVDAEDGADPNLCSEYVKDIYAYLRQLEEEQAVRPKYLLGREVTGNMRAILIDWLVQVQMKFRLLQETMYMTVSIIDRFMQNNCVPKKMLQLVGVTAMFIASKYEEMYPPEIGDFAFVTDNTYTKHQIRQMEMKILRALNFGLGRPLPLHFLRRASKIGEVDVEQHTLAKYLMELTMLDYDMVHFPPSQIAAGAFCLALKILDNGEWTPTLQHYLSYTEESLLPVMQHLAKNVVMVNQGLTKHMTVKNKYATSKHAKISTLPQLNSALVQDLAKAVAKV

[12] = tested on: isolated islets from MST1-KO mice; assay: β-cell apoptosis (TUNEL/insulin) under diabetogenic conditions, MST1-KO islets
[13] = tested on: human islets; assay: Western blot of pMST1 and caspase-3 cleavage under diabetogenic conditions; settings: 72 h, six donors
[14] = target: CHEK1 (Homo sapiens, UniProt O14757); assay: Nanosyn kinase profiling, mobility shift assay; settings: read-out: % inhibition by neratinib
CHEK1, sequence (O14757 whole entry): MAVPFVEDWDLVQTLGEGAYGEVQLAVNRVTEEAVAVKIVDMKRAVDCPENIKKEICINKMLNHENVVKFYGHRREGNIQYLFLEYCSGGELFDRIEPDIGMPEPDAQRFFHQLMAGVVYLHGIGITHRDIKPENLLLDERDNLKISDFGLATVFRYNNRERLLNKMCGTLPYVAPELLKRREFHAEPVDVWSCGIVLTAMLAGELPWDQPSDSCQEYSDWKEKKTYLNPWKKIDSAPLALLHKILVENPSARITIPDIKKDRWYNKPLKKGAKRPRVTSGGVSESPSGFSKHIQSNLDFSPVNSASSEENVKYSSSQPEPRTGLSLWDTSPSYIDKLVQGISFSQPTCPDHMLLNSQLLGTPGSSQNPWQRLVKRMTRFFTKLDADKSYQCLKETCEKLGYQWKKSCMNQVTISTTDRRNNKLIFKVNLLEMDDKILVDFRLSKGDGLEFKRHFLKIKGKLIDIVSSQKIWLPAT

[15] = target: MEK6 (Homo sapiens, UniProt P52564); assay: Nanosyn kinase profiling, mobility shift assay; settings: read-out: % inhibition by neratinib
MEK6, sequence (P52564 whole entry): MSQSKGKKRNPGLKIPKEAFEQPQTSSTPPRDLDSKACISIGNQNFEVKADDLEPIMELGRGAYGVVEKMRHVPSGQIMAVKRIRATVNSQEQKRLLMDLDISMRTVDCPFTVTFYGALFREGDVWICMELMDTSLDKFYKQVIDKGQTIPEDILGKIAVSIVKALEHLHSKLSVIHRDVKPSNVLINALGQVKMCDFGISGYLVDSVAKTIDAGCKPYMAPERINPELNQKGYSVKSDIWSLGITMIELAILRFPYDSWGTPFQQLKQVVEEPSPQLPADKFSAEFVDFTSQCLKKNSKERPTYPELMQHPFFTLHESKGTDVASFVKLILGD

[16] = target: IGF1R (Homo sapiens, UniProt P08069); assay: Nanosyn kinase profiling, mobility shift assay; settings: read-out: % inhibition by neratinib
[17] = target: PAK2 (Homo sapiens, UniProt Q13177); assay: biochemical; settings: read-out: % inhibition by neratinib
[18] = target: PRKACA (Homo sapiens, UniProt P17612); assay: Nanosyn kinase profiling, mobility shift assay; settings: read-out: % inhibition by neratinib
[19] = tested on: human islets; assay: β-cell apoptosis (TUNEL/insulin) under diabetogenic conditions; assay type: cell-based; settings: for mean TUNEL/isolation/%: 72 h
Protocol: . pThr183), caspase-3 cleavage, and GAPDH or actin were analyzed by western blotting. […] Scale bar, 100 μm. […]; all by Student’s t tests.
Human islets were isolated from eight pancreases of nondiabetic organ donors at PRODO Labs and at Lille University and cultured on extracellular matrix-coated dishes (Novamed, Jerusalem, Israel)[62] or on Biocoat Collagen I coated dishes (#356400, Corning, ME, USA). […] The clonal rat β-cell line INS-1E was kindly provided by Dr. Claes Wollheim, Geneva & Lund University. Human islets were cultured in complete CMRL-1066 (Invitrogen) medium at 5.5 mM glucose, mouse islets and INS-1E cells at complete RPMI-1640 medium at 11.1 mM glucose. […] . Palmitic acid (Sigma) was dissolved at 10 mmol/l in RPMI-1640 medium containing 11% fatty acid–free bovine serum albumin (BSA) (Sigma) under an N2-atmosphere and added to the culture at 0.5 mM[64]. […] . Isolated human islets or INS-1E cells were infected with adenovirus carrying LacZ as control or MST1 or LATS2 (all Vector Biolabs), at a multiplicity of infection of 100 (human islets) or 20 (INS-1E) for 4 h[11]. Adenovirus was subsequently washed off with PBS and replaced by fresh medium with 10% FBS and the respective analysis performed after 48 h post infection.
Mouse pancreases were dissected and fixed in 4% formaldehyde at 4 °C for 12 h before embedding in paraffin[62]. Two-four-micrometer sections were deparaffinized, rehydrated, and incubated overnight at 4 °C with anti-PDX-1 (Abcam; #47267), anti-Glut2 (Chemicon; #07-1402), anti-Ki67 (Dako; #M7249), anti-phospho-Histone H3 (Ser10; Merck #06-570), and anti-NKX6.1 (DSHB, University of Iowa #F55A12[66]) in combination with TSA (Invitrogen #T30955), or for 2 h at room temperature with anti-insulin (Dako; A0546) antibodies (all at a dilution of 1:100, except anti-PDX-1, which was diluted 1:400) followed by fluorescein isothiocyanate (FITC)- or Cy3-conjugated secondary antibodies (Jackson ImmunoResearch Laboratories, West Grove, PA). Slides were mounted with Vectashield with 4′6-diamidino-2-phenylindole (DAPI) (Vector Labs). β-cell apoptosis was analyzed by the terminal deoxynucleotidyl transferase-mediated dUTP nick-end labeling (TUNEL) technique according to the manufacturer’s instructions (In Situ Cell Death Detection Kit, TMR red; Roche) and double stained for insulin. Fluorescence was analyzed by using a Nikon MEA53200 (Nikon GmbH, Dusseldorf, Germany) microscope, and images were acquired by using NIS-Elements software (Nikon).

EPH-A2, sequence (P29317 24-976): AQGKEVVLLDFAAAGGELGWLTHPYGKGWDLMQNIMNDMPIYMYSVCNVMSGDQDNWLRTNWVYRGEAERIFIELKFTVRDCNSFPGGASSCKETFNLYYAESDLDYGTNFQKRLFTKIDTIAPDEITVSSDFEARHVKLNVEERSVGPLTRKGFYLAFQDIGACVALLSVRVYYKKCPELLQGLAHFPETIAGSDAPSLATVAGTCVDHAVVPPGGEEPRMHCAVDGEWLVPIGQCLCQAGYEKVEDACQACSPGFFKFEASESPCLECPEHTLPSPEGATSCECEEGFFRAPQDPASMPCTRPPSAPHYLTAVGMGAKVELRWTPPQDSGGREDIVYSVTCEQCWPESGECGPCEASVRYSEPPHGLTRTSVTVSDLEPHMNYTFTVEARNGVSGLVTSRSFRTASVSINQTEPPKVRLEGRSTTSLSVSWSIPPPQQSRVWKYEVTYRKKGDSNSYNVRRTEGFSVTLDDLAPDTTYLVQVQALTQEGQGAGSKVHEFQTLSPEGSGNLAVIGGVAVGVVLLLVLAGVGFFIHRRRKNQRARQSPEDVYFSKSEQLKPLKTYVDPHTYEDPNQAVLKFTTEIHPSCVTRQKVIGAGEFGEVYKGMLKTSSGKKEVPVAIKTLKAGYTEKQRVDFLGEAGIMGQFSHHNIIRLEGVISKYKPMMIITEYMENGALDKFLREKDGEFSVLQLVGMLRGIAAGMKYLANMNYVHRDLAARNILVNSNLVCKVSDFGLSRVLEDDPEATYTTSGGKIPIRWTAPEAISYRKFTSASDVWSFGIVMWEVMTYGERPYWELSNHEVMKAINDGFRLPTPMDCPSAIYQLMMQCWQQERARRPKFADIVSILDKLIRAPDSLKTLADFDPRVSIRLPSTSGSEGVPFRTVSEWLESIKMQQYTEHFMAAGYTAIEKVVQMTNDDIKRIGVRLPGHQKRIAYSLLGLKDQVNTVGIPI

`CCOc1cc2ncc(C#N)c(Nc3ccc(OCc4ccccn4)c(Cl)c3)c2cc1NC(=O)/C=C/CN(C)C` [neratinib] was tested, and the inhibition at 10 µM [1] was 51%, the inhibition at 10 µM [2] was 28% and the “number of kinases with 50% of inhibition” value [3] was 59. The “MST1/LATS2-induced luciferase activity (LATS-BS)” value ([4]; 10 μM, last 24 h) was “strongly inhibited”, the “Firefly/Renilla x1000 (MEAN)” value ([4]; mean of six dishes) was 10.9109 and the “Firefly/Renilla x1000 (MEAN)” value ([4]; single culture dishes) was 12.1618. The “thermal stabilization of MST1 in intact cells” value [5] was “MST1 stabilization at 55 °C”, the inhibition at 10 µM [6] was 18% and the inhibition at 10 µM [7] was 15%. It also gave an inhibition at 10 µM [8] of 84%, an inhibition at 10 µM [9] of 11% and an inhibition at 10 µM [10] of 12%. The inhibition at 10 µM [11] was 14%, the “cytokine- and glucolipotoxicity-induced apoptosis in MST1-KO islets” value ([12]; 10 μM, 72 h) was “no significant effect” and the “mean TUNEL/isolation/%” value ([12]; MST1-KO HG/Pal Nera 10 μM 72 h) was 407.974%. For the same compound, the “mean TUNEL/isolation/%” value ([12]; MST1-KO ILIF Nera 10 μM 72 h) was 384.79%, the “cytokine- and high glucose/palmitate-induced MST1 activation and caspase-3 activation” value [13] was “potently and significantly inhibited” and the inhibition at 10 µM [14] was 27%. For the same compound, the inhibition at 10 µM [15] was 9%, the inhibition at 10 µM [16] was 37% and the inhibition at 10 µM [17] was 101%. The inhibition at 10 µM [18] was 3%, the “toxicity at basal control levels” value ([19]; 25 µM neratinib, human islets) was “did not result in any detectable toxicity” and the “mean TUNEL/isolation/%” value ([19]; HG/Pal + NERA, mean of isolations, untreated = 100) was 180.73%. For the same compound, the “mean TUNEL/isolation/%” value ([19]; HG/Pal + NERA, single islet isolations, untreated mean = 100) was 224.286% and 136.508% and 181.395% and the “mean TUNEL/isolation/%” value ([19]; ILIF + NERA, mean of isolations, untreated = 100) was 205.757%.
